Legend:
PPAR-α = target: T1, PPAR-α (Homo sapiens, UniProt Q07869); conditions: literature, Van Veldhoven et al., 2000; cited from earlier work
T1 sequence (Q07869 1-468): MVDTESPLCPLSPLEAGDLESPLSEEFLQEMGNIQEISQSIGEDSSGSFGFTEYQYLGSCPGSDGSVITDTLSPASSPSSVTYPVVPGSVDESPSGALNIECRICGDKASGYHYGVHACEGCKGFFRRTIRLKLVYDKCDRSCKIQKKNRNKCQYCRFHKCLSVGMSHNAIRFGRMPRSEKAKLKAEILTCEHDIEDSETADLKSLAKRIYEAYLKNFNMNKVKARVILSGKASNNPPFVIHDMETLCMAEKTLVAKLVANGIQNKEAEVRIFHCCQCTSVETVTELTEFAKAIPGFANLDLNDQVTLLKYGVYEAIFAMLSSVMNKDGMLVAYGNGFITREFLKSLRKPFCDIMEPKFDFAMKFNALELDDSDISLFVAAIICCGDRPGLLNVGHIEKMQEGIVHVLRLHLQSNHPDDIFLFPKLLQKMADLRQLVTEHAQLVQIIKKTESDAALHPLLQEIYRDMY

3T3-L1 adipocytes = conditions: literature, Mei et al., 2002; cited from earlier work
female ob/ob mice [1] = assay: Hyperinsulinemic euglycemic clamp analysis in overnight fasted ob/ob mice; format: in vivo; conditions: 1% PS diet; for Glucose (plasma) during clamp: overnight fasted
Protocol: (§1) The “gold standard” for insulin resistance is a test called the hyperinsulinemic euglycemic clamp study. It is a complicated and expensive study in which insulin and glucose is infused intravenously at several different doses to see what levels of insulin control different levels of glucose. Essentially, the method of Koopmans et al., 2001 and Voshol et al., 2001.
(§2) All mice were fasted overnight and anaesthetised by intraperitoneal injection of Hypnorm® (fentanyl-fluanisone) (0.5 ml/kg body weight) and midazolam (12.5 mg/kg body weight). Mice were kept anaesthetised by administering 50 μl of Hypnorm®/midazolam subcutaneous every 45 minutes.
(§3) A needle filled with PBS was inserted into the tail vein and was connected to two pumps (Model 100 series, KdScienticic, PA, USA): one with an insulin solution consisting of 3057 μl PBS, 400 μl citrate (30 μg/μl) and 543 μl insulin (1 U/ml), and one pump with a solution of 6.25 g D-glucose in 50 ml PBS. Before the infusion with the two solutions was started, a capillary of blood was drawn from the tail tip. Subsequently a bolus of 30 μl of insulin was given and the pumps were started (50 μl/h). The mice were given rest for 30 minutes. Then every 10 minutes the glucose level was measured with a glucose handmeter (Freestyle, Disetronic Medical Systems AG, Burgdorf, Germany) and the glucose infusion rate was adjusted until the glucose concentration in the blood was constant for at least 20 minutes and a capillary of blood was drawn.
(§4) The insulin and glucose levels in the capillaries were measured using a standard commercial kit, according to the manufacturer's instructions (Hexokinase method, Instruchemie); and insulin levels were measured by Ultrasensitive mouse insulin ELISA, enzyme immunoassay according to the manufacturer's instructions (Mercodia, Sweden)
1.5 weeks after the last blood sample (necessary for full recovery of the mice) the ob/ob mice were fasted overnight and subjected to a hyperinsulinemic euglycemic clamp analysis. […]

[2] = test system: insulin resistant mice (male ApoE3*Leiden mice); assay: Hyperinsulinemic euglycemic clamp in insulin resistant mice on high fat, high fructose diet; format: in vivo; conditions: 0.3% (w/w) in high fat, compared to control group
Source text: as §1
Male ApoE3*Leiden mice were fed with a high fat, high fructose diet (24% casein, 17% corn starch, 14% cellulose, 1% cholesterol, 24% bovine lard, 20% fructose; all w/w). After 8 weeks all mice in this group were moderately insulin resistant and were strongly insulin resistant after 18 weeks. Two parallel groups of mice (n=8) were fed for another 10 weeks the same diet, but containing 0.3% (w/w of the dry food) of either egg sphingomyelin or phytosphingosine.
In another parallel experiment, three groups of 8 mice each were fed the same high fat, high fructose diet for 18 weeks. One group received 0.3% egg sphingomyelin during the whole period, one group received 0.3% phytosphingosine during the whole period and the last group served as the control group (i.e. received no additional sphingolipid).
as §2, §3, §4

female ob/ob mice [3] = assay: Plasma parameters and body weight in 4 h fasted ob/ob mice fed chow or chow with 1% phytosphingosine; format: in vivo; conditions: for Body weight: mean ± SD of 10 mice; for Glucose (plasma) / Insulin (plasma): 4 h fasted, mean ± SD
Protocol: 20 female ob/ob mice (C57B1/6 background) were obtained from Charles River, The Netherlands and were acclimatized for a period of 2 weeks within the TNO-facilities. After a 4 hour fast, blood was drawn by tail bleeding and the animals were randomized according to body weight and plasma glucose levels. […] The mice were put on a regular chow diet (control) or regular chow supplemented with 1% phytosphingosine (1% PS). After three weeks of treatment a blood sample was drawn after a 4 hours fast and body weight was determined. […] The 1% PS treated mice maintained their initial body weight. […] We observed no differences in insulin levels between the groups.

[4] = high fructose diet during the last 10 weeks of the 18 week experiment
[5] = high fructose diet during whole 18 weeks
[6] = T = 0 (starting point, before treatment), 1% PS group
[7] = T = 3 (3 weeks of chow with 1% PS)

Q: With ceramide as the molecule, how does the “binding to the PPAR-α receptor” value (PPAR-α) read?
A: not able to bind

Q: For `CCCCCCCCCCCCC/C=C/[C@@H](O)[C@H](CO)NC(C)=O` [C2-ceramide], which “antilipolytic action of insulin” value (3T3-L1 adipocytes) is on record?
A: decrease the antilipolytic action of insulin

Q: And the lipolysis (3T3-L1 adipocytes)?
A: stimulate lipolysis

Q: With `CCCCCCCCCCCCCCC[C@@H](O)[C@@H](N)COP(=O)(O)O` [sphinganine-1-phosphate] as the molecule, how does the “binding to the PPAR-α receptor” value (PPAR-α) read?
A: not able to bind

Q: Which “binding to the PPAR-α receptor” value (PPAR-α) does the source give for `CCCCCCCCCCCCC/C=C/[C@@H](O)[C@@H](N)CO` [sphingenine] here?
A: strong binding ligands

Q: With `CCCCCCCCCCCCC/C=C/[C@@H](O)[C@H](CO)NC(=O)CCCCCCCCCCCCCCC` [N-hexadecanoyl-sphingenine] as the molecule, how does the “binding to the PPAR-α receptor” value (PPAR-α) read?
A: not able to bind

Q: For `CCCCCCCCCCCCCCC[C@@H](O)[C@@H](N)CO` [sphinganine], which “binding to the PPAR-α receptor” value (PPAR-α) is on record?
A: strong binding ligands

Q: For phosphatidylcholine, which “binding to the PPAR-α receptor” value (PPAR-α) is on record?
A: not able to bind

Q: With `CCCCCCCCCCCCC/C=C/[C@@H](O)[C@H](CO)NC(C)=O` [N-acetyl-sphingenine] as the molecule, how does the “binding to the PPAR-α receptor” value (PPAR-α) read?
A: not able to bind

Q: With `CCCCCCCCCCCCCC[C@@H](O)[C@@H](O)[C@@H](N)CO` [phytosphingosine] as the molecule, how does the “glucose infusion rate (GIR)” value (female ob/ob mice [1]; vs. 46±8 in control ob/ob mice, P=0.001) read?
A: 4.5 ± 0.96 mL/h/kg

Q: And the “Glucose (plasma) during clamp” value (female ob/ob mice [1]; Basal period (no insulin added))?
A: 7.3 ± 2.4 mmol/L

Q: What about the “Glucose (plasma) during clamp” value (female ob/ob mice [1]; Hyperinsulinemic period) of the same molecule?
A: 4.8 ± 1.3 mmol/L

Q: And the “infusion rate of glucose, percentage of the infusion rate in strongly insulin resistant control mice” value [2, 4]?
A: 114%

Q: And the “infusion rate of glucose, percentage of the infusion rate in strongly insulin resistant control mice” value [2, 5]?
A: 102%

Q: And the Body weight (female ob/ob mice [3]; [6])?
A: 42.2 ± 4.6 g

Q: What about the “Glucose (plasma)” value (female ob/ob mice [3]; [6]) of the same molecule?
A: 23.9 ± 5.1 mmol/L

Q: What about the “Insulin (plasma)” value (female ob/ob mice [3]; [6]) of the same molecule?
A: 25.8 ± 14.1 ng/mL

Q: And the “Insulin (plasma)” value (female ob/ob mice [3]; [7])?
A: 22.3 ± 6.8 ng/mL

Q: And the “Glucose (plasma)” value (female ob/ob mice [3]; T = 3 (3 weeks of chow with 1% PS), P < 0.01 vs. control)?
A: 26.0 ± 7.0 mmol/L

Q: And the Body weight (female ob/ob mice [3]; [7])?
A: 41.7 ± 3.7 g

Q: Which “binding to the PPAR-α receptor” value (PPAR-α) does the source give for sphingomyelin here?
A: not able to bind

Q: And the “infusion rate of glucose, percentage of the infusion rate in strongly insulin resistant control mice” value [2, 4]?
A: 102%

Q: What about the “infusion rate of glucose, percentage of the infusion rate in strongly insulin resistant control mice” value [2, 5] of the same molecule?
A: 117%
